Test results from patent publication US12084420B2, “Indoline compounds for inhibiting KIF18A” (Volastra Therapeutics, Inc., priority 2021, dated 2024).

What follows are molecules tested against hKIF18A (1-374) (Homo sapiens (Human), UniProt Q8NI77) (assay: Inhibition of KIF18A microtubule-dependent ATPase activity (ADP-Glo)). Details: not given.
Chain of hKIF18A (1-374) (Q8NI77 whole entry, looked up): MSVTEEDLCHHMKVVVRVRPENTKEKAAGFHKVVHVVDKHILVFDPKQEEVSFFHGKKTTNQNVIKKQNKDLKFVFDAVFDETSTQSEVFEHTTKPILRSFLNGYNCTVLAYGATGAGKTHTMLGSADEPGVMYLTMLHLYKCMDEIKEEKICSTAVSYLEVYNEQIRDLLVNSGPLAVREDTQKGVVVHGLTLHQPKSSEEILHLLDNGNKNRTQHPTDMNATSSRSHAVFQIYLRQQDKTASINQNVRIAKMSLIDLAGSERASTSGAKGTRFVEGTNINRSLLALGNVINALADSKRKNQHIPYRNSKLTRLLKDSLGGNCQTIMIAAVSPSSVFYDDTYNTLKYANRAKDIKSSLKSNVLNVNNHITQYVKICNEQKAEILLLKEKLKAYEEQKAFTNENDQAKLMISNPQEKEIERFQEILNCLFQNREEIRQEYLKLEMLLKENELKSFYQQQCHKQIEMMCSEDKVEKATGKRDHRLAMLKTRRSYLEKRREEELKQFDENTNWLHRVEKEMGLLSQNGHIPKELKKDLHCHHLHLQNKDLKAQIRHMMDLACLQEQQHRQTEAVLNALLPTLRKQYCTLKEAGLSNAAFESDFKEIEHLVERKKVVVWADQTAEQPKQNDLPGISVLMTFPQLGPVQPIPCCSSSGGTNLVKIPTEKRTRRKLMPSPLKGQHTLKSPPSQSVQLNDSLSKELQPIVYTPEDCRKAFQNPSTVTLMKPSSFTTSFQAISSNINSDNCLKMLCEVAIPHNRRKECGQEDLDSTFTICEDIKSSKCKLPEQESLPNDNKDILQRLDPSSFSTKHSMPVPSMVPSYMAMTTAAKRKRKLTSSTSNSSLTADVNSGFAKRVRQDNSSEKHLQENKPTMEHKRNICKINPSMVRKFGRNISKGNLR
Chain of hKIF18A (1-374) (Q2XVP4 whole entry partner, looked up): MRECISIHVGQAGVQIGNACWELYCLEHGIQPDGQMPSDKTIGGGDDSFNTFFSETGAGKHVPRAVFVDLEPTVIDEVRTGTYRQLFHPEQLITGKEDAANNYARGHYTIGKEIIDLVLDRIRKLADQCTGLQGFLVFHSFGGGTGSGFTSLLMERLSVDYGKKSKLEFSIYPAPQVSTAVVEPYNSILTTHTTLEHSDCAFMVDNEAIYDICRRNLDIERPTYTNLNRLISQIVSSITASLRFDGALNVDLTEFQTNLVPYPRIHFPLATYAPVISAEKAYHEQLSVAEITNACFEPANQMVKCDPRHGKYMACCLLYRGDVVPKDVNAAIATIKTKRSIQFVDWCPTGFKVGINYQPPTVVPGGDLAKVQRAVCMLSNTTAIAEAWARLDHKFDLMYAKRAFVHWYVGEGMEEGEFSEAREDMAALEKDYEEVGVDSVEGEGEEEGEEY
Chain of hKIF18A (1-374) (P02554 whole entry partner, looked up): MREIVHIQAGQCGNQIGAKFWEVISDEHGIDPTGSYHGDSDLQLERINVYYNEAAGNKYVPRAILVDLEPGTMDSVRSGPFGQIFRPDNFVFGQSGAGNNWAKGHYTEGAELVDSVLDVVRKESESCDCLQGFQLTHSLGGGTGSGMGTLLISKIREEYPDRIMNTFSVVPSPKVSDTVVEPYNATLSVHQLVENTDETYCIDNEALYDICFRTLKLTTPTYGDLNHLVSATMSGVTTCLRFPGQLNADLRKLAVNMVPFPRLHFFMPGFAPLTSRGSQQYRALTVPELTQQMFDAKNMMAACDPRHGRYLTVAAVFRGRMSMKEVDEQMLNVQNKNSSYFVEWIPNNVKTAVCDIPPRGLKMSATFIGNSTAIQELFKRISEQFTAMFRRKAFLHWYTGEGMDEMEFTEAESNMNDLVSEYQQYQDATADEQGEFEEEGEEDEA

IC50	Compound
16 nM	C[C@H]1CCN(S(=O)(=O)c2cccc(C(=O)N3CC4(CCC5(CC5)CC4)c4cc(NS(C)(=O)=O)ccc43)c2)C1 [(S)-Compound 249, (S)-N-(1″-(3-((3-methylpyrrolidin-1-yl)sulfonyl)benzoyl)dispiro[cyclopropane-1,1′-cyclohexane-4′,3″-indolin]-5″- yl)methanesulfonamide]
100 nM	COC1CC(NS(=O)(=O)c2cccc(C(=O)N3CC4(CCC5(CC5)CC4)c4cc(NS(C)(=O)=O)ccc43)c2)C1 (centres unmarked) [Compound 222, N-(3-methoxycyclobutyl)-3-(5″- (methylsulfonamido)dispiro[cyclopropane-1,1′-cyclohexane-4′,3″-indoline]-1″-carbonyl)benzenesulfonamide]

Same assay, conditions: KIF18A microtubule-dependent ATPase activity, biochemical assay

IC50	Compound
50 nM	CC(C)S(=O)(=O)c1cccc(C(=O)N2CC3(CCC4(CC4)CC3)c3cc(NS(C)(=O)=O)ccc32)c1 [Compound 326, N-(1″-(3-(isopropylsulfonyl)benzoyl)dispiro [cyclopropane-1,1′-cyclohexane-4′,3″- indolin]-5″-yl)methanesulfonamide]
33 nM	CC(NS(=O)(=O)c1cccc(C(=O)N2CC3(CCC4(CC4)CC3)c3cc(NS(C)(=O)=O)ccc32)c1)C1CCC1 (centres unmarked) [Compound 184, N-(1-cyclobutylethyl)-3-(5″- (methylsulfonamido)dispiro[cyclopropane-1,1′-cyclohexane-4′,3″-indoline]-1″-carbonyl)benzenesulfonamide]
270 nM	CS(=O)(=O)Nc1ccc2c(c1)C1(CCCCC1)CN2C(=O)c1cccc(S(=O)(=O)N2CCC2)c1 [Compound 45, N-(1′-(3-(azetidin-1-ylsulfonyl)benzoyl)spiro[cyclohexane-1,3′-indolin]-5′-yl)methanesulfonamide]
14 nM	C=C1CN(S(=O)(=O)c2cccc(C(=O)N3CC4(CCC5(CC5)CC4)c4cc(NS(C)(=O)=O)ccc43)c2)C1 [Compound 258]
13 nM	CS(=O)(=O)Nc1ccc2c(c1)C1(CCC3(CC3)CC1)CN2C(=O)c1csc(S(=O)(=O)N2CCC(F)(F)CC2)c1 [Compound 281, N-(1″-(5-((4,4-difluoropiperidin-1-yl)sulfonyl)thiophene-3-carbonyl)dispiro[cyclopropane-1,1′-cyclohexane-4′,3″-indolin]-5″- yl)methanesulfonamide]
6.3 nM	CS(=O)(=O)Nc1ccc2c(c1)C1(CCC3(CC3)CC1)CN2C(=O)c1csc(S(=O)(=O)N2CC3(CCC3)C2)c1 [Compound 279, N-(1″-(5-((2-azaspiro[3.3]heptan-2-yl)sulfonyl)thiophene-3-carbonyl)dispiro[cyclopropane-1,1′-cyclohexane-4′,3″-indolin]-5″- yl)methanesulfonamide]
44 nM	CCS(=O)(=O)Nc1ccc2c(c1)C1(CCC(F)(F)CC1)CN2C(=O)c1cccc(S(=O)(=O)NC(C)(C)C)c1 [Compound 327, N-(tert-butyl)-3-(5′-(ethylsulfonamido)-4,4-difluorospiro[cyclohexane-1,3′-indoline]-1′-carbonyl)benzenesulfonamide]
7.2 nM	O=C(c1cccc(S(=O)(=O)NC2CCC2)c1)N1CC2(CCC3(CC3)CC2)c2cc(NS(=O)(=O)CCO)ccc21 [Compound 227, N-cyclobutyl-3-(5″-((2-hydroxyethyl)sulfonamido)dispiro[cyclopropane-1,1′-cyclohexane-4′,3″- indoline]-1″- carbonyl)benzenesulfonamide]
34 nM	CC1CCC2(C1)CN(C(=O)c1cccc(S(=O)(=O)NC(C)(C)C)c1)c1ccc(NS(C)(=O)=O)cc12 (centres unmarked) [Compound 252, N-(tert-butyl)-3-(3-methyl-5′-(methylsulfonamido)spiro[cyclopentane-1,3′-indoline]-1′-carbonyl)benzenesulfonamide]
940 nM	O=C(c1cccc(S(=O)(=O)N2CCCC2)c1)N1CC2(CCC3(CC3)CC2)c2ccccc21 [Compound 8, dispiro[cyclopropane-1,1′-cyclohexane-4′,3″-indolin]-1″-yl(3-(pyrrolidin-1-ylsulfonyl)phenyl)methanone]
83 nM	CC(C)(C)NS(=O)(=O)c1cccc(C(=O)N2CC3(CCC4(CC4)CC3)c3cc(C(O)C(F)(F)F)ccc32)c1 (single isomer, unassigned) [Compound 338b]
5.6 nM	CS(=O)(=O)Nc1ccc2c(c1)C1(CCC3(CC3)CC1)CN2C(=O)c1cccc(S(=O)(=O)NC2CCCC2)c1 [Compound 176, N-cyclopentyl-3-(5″- (methylsulfonamido)dispiro[cyclopropane-1,1″-cyclohexane-4′,3″-indoline]-1″-carbonyl)benzenesulfonamide]
17 nM	CCS(=O)(=O)Nc1ccc2c(c1)C1(CCC3(CC3)CC1)CN2C(=O)c1cccc(S(=O)(=O)NC2CC(F)(F)C2)c1 [Compound 293, N-(3,3-difluorocyclobutyl)-3-(5″- (ethylsulfonamido)dispiro[cyclopropane-1,1′-cyclohexane-4′,3″-indoline]-1″- carbonyl)benzenesulfonamide]
9.3 nM	CS(=O)(=O)Nc1ccc2c(c1)C1(CCC3(CC3)CC1)CN2C(=O)c1cccc(S(=O)(=O)CC2CCC2)c1 [Compound 335, N-(1″-(3-((cyclobutylmethyl)sulfonyl)benzoyl)dispiro[cyclopropane-1,1′-cyclohexane-4′,3″-indolin]-5″-yl)methanesulfonamide]
24 nM	C[C@H](c1cccc(C(=O)N2CC3(CCC4(CC4)CC3)c3cc(NS(C)(=O)=O)ccc32)c1)N1CCC(F)(F)CC1 (single isomer, unassigned) [Compound 341b]
17 nM	CS(=O)(=O)Nc1ccc2c(c1)[C@]1(CC[C@H](C(F)F)CC1)CN2C(=O)c1cccc(S(=O)(=O)NC23CC(C2)C3)c1 [Compound 336b]
17 nM	CC1(NS(=O)(=O)c2cccc(C(=O)N3CC4(CCC5(CC5)CC4)c4cc(NS(C)(=O)=O)ccc43)c2)CCOC1 (centres unmarked) [Compound 178, 3-(5″- (methylsulfonamido)dispiro[cyclopropane-1,1′-cyclohexane-4′,3″-indoline]-1″-carbonyl)-N-(3-methyltetrahydrofuran-3-yl)benzenesulfonamide]
28 nM	CS(=O)(=O)Nc1ccc2c(c1)C1(CCC3(CC3)CC1)CN2C(=O)c1cccc(CN2C[C@@H]3[C@H](C2)C3(F)F)c1 [Compound 358, N-(1″-(3-((6,6-difluoro-3-azabicyclo[3.1.0]hexan-3-yl)methyl)benzoyl)dispiro[cyclopropane-1,1′-cyclohexane-4′,3″-indolin]-5″- yl)methanesulfonamide]
14 nM	CC1(C(O)c2cccc(C(=O)N3CC4(CCC5(CC5)CC4)c4cc(NS(C)(=O)=O)ccc43)c2)CCC1 (centres unmarked) [Compound 354, N-(1″-(3-(hydroxy(1-methylcyclobutyl)methyl)benzoyl)dispiro[cyclopropane-1,1′-cyclohexane-4′,3″-indolin]-5″- yl)methanesulfonamide]
15 nM	CS(=O)(=O)Nc1ccc2c(c1)C1(CCC3(CC3)CC1)CN2C(=O)c1cccc([C@H](O)C2CCC2)c1 (single isomer, unassigned) [Compound 313b]

Compound	IC50
CC(C)(C)CC(O)c1cccc(C(=O)N2CC3(CCC4(CC4)CC3)c3cc(NS(C)(=O)=O)ccc32)c1 (centres unmarked) [Compound 357, N-(1″-(3-(1-hydroxy-3,3-dimethylbutyl)benzoyl)dispiro[cyclopropane-1,1′-cyclohexane-4′,3″-indolin]-5″-yl)methanesulfonamide]	11 nM
